In patent US8183263B2 (priority 2007, dated 2012) one finds EC50 data, which are given here for 30 molecules.

Structures are written as SMILES. pEC50: −log10 of the molar value.

In this test the test system is HCV replicon. Nature of the test: HCV replicon replication assay (NPT level by captured ELISA). The class given is cell-based. To be noted: Hepatitis C virus, 72 h; Huh-7 HCV replicon-containing cells, three days incubation; read-out: Activity (inhibition of HCV replicon replication). The protocol: Compounds claimed herein are tested for the ability to inhibit viral replication of the Hepatitis C replicon in cultured cells in which the HCV replicon construct has been incorporated. The HCV replicon system was described by Bartenschlager, et. al (Science, 285, pp. 110-113 (1999)). The replicon system is predictive of in vivo anti-HCV activity; compounds that are active in humans uniformly evidence activity in the replicon assay.
In this assay HCV replicon containing cells are treated with different concentrations of the test compound to ascertain the ability of the test compound to suppress replication of the HCV replicon. As a positive control, HCV replicon-containing cells are treated with different concentrations of interferon alpha, a known inhibitor of HCV replication. The replicon assay system includes Neomycin Phosphotransferase (NPT) as a component of the replicon itself in order to detect the transcription of replicon gene products in the host cell. Cells in which the HCV replicon is actively replicating have high levels of NPT; the level of NPT is proportional to HCV replication. […] The NPT level of each sample is measured using a captured ELISA.
A protocol for testing compounds for the ability to inhibit viral replication of the Hepatitis C replicon cultured cells in which the replicon construct has been incorporated, follows.
The HCV replicon contains, 5′-3′, the HCV-IRES, the neomycin phosphotransferase (neo) gene, the IRES of encephalomyocarditis virus, which directs translation of HCV sequences NS3 to NS5B, and the 3′-NTR. The sequence of the HCV replicon has been deposited in GenBank (Accession no. AJ242652).
The replicon is transfected into Huh-7 cells using standard methods such as electroporation.
The equipment and materials include, but are not limited to, Huh-7 HCV replicon-containing cells, maintenance media (DMEM (Dulbecco's modified Eagle media) supplemented with 10% FBS, L-glutamine, non-essential amino acids, penicillin (100 units/ml), streptomycin (100 micrograms/ml), and 500 micrograms/ml of Geneticin (G418), screening media (DMEM supplemented with 10% FBS, L-glutamine, non-essential amino acids, penicillin (100 units/ml) and streptomycin (100 micrograms/ml)), 96 well tissue culture plates (flat bottom), 96 well plates (U bottom for drug dilution), Interferon alpha for positive control, fixation reagent (such as methanol: acetone), primary antibody (rabbit anti-NPTII), secondary antibody: Eu—N1 1, and enhancement solution.
HCV replicon-containing cells are rinsed with once PBS once; 2 mls of trypsin are then added. Cells are incubated at 37° C. in a 5% CO2 incubator for 3-5 minutes. 10 mls of complete medium is added to stop the reaction. Cells are blown gently, put into a 15 ml tube, and spun at 1200 rpm for four minutes. The trypsin/medium solution is removed and 5 mls of medium (500 ml DMEM (high glucose)) from BRL catalog #12430-054; 50 mls 10% FBS, 5% Geneticin G418 (50 mg/ml, BRL catalog #10131-035), 5 ml MEM non-essential amino acids (100×BRL #11140-050) and 5 ml pen-strep (BRL #15140-148) is added. The cells and media are mixed carefully
Cells are plated with screening medium (500 ml DMEM (BRL #21063-029), 50 ml FBS (BRL #10082-147) and 5 ml MEM non-essential amino acid (BRL #11140-050) at 6000-7500 cells/100 μl/well of 96 well plate (6-7.5×10^5 cells/10 ml/plate). Plates are placed into 37° C. 5% CO2 incubator overnight.
The following morning, drugs (test compounds or interferon alpha) are diluted in 96 well U bottom plates with media or DMSO/media, depending on the final concentration chosen for screening. Generally for 6 concentrations of each test compounds ranging from 10 micromolar to 0.03 micromolar are applied. 100 μl of the test compound dilution is placed in wells of the 96 well plate containing the HCV replicon cells. Media without drug is added to some wells as a negative controls. DMSO is known to affect cell growth. […]
In general terms: Replicon systems follow genome replication, usually without infectious particles.
As for `CCCCCCCCOc1cc(Nc2nc(-c3cccnc3)cs2)ccc1C` [Cmp 25, N-(4-methyl-3-(octyloxy)phenyl)-4-(pyridin-3-yl)thiazol-2-amine], the pEC50 was over 6.00.
The figure for `Cc1ccc(Nc2nc(-c3ccc(F)cc3)c(F)s2)cc1OCCOc1ccccc1` [Cmp 60, 5-fluoro-4-(4-fluorophenyl)-N-(4-methyl-3-(2-phenoxyethoxy)phenyl)thiazol-2-amine] is over 6.00; for `CCCCCCCCC1Cc2ccc(Nc3nc(-c4cccnc4)cs3)cc2O1` (stereo not drawn) [Cmp 123, N-(2-octyl-2,3-dihydrobenzofuran-6-yl)-4-(pyridin-3-yl)thiazol-2-amine] it is over 6.00.
The figure for `CCCCCCCCC1Cc2ccc(Nc3nc(-c4ccc(C)nc4)cs3)cc2O1` (stereo not drawn) [Cmp 124, 4-(6-methylpyridin-3-yl)-N-(2-octyl-2,3-dihydrobenzofuran-6-yl)thiazol-2-amine] is over 6.00.
The figure for `FC(F)(F)c1cc(Nc2nc(-c3cccnc3)cs2)ccc1Oc1ccccc1` [Cmp 47, N-(4-phenoxy-3-(trifluoromethyl)phenyl)-4-(pyridin-3-yl)thiazol-2-amine] is over 6.00; for `Cc1ccc(Nc2nc(-c3cccnc3)cs2)cc1OCC1CCCCC1` [Cmp 38, N-(3-(cyclohexylmethoxy)-4-methylphenyl)-4-(pyridin-3-yl)thiazol-2-amine] it is over 6.00; for `CCCCCCCCc1cc(Nc2nc(-c3cccnc3)cs2)cc(C(F)(F)F)c1` [Cmp 80, N-(3-octyl-5-(trifluoromethyl)phenyl)-4-(pyridin-3-yl)thiazol-2-amine] it is over 6.00.
As to `Cc1ccc(OCCCc2ccc(Nc3nc(-c4cccnc4)cs3)cc2C(F)(F)F)cc1` [Cmp 118, 4-(pyridin-3-yl)-N-(4-(3-(p-tolyloxy)propyl)-3-(trifluoromethyl)phenyl)thiazol-2-amine], the pEC50 is over 6.00.
As for `Fc1sc(Nc2ccc(CCCCOc3ccccc3)c(C(F)(F)F)c2)nc1-c1cccnc1` [Cmp 136, 5-fluoro-N-(4-(4-phenoxybutyl)-3-(trifluoromethyl)phenyl)-4-(pyridin-3-yl)thiazo1-2-amine], the figure is over 6.00.
As for `COc1ncc(-c2nc(Nc3ccc(C)c(OCC4CCCCC4)c3)sc2F)cn1` [Cmp 63, N-(3-(cyclohexylmethoxy)-4-methylphenyl)-5-fluoro-4-(2-methoxypyrimidin-5-yl)thiazol-2-amine], the figure is over 6.00; as for `COc1ncc(-c2csc(Nc3ccc(C)c(OCC4CCCCC4)c3)n2)cn1` [Cmp 43, N-(3-(cyclohexylmethoxy)-4-methylphenyl)-4-(2-methoxypyrimidin-5-yl)thiazol-2-amine], over 6.00.
The figure for `CCCCCCCCc1cc2ccc(Nc3nc(-c4cccnc4)cs3)cc2o1` [Cmp 114, N-(2-octylbenzofuran-6-yl)-4-(pyridin-3-yl)thiazol-2-amine] is over 6.00; for `CC(=O)c1cc(Nc2nc(-c3cccnc3)cs2)ccc1Oc1ccc(Cl)cc1` [Cmp 84, 1-(2-(4-chlorophenoxy)-5-(4-(pyridin-3-yl)thiazol-2-ylamino)phenyl)ethanone] it is over 6.00; for `CCCCCOc1cc(Nc2nc(-c3cccnc3)cs2)ccc1C` [Cmp 26, N-(4-methyl-3-(pentyloxy)phenyl)-4-(pyridin-3-yl)thiazol-2-amine] it is over 6.00.
Take `CCCCCCCCOc1ccc(Nc2nc(-c3ccsc3C(N)=O)c(F)s2)cc1C(F)(F)F` [Cmp 188, 3-(5-fluoro-2-(4-(octyloxy)-3-(trifluoromethyl)phenylamino)thiazol-4-yl)thiophene-2-carboxamide]: the pEC50 was over 6.00.
For the molecule `Fc1sc(Nc2ccc(CCCOc3ccc(Cl)cc3)c(C(F)(F)F)c2)nc1-c1cccnc1` [Cmp 104, N-(4-(3-(4-chlorophenoxy)propyl)-3-(trifluoromethyl)phenyl)-5-fluoro-4-(pyridin-3-yl)thiazol-2-amine], the pEC50 was over 6.00.
As for `CCc1ccc(Oc2ccc(Nc3nc(-c4cnc(OC)nc4)cs3)cc2C(F)(F)F)cc1` [Cmp 53, N-(4-(4-ethylphenoxy)-3-(trifluoromethyl)phenyl)-4-(2-methoxypyrimidin-5-yl)thiazol-2-amine], the figure is over 6.00; as for `CC(=O)c1cc(Nc2nc(-c3cccnc3)c(F)s2)ccc1Oc1ccccc1` [Cmp 81, 1-(5-(5-fluoro-4-(pyridin-3-yl)thiazol-2-ylamino)-2-phenoxyphenyl)ethanone], over 6.00; as for `Cc1ccc(CCCCOc2cc(Nc3nc(-c4cccnc4)cs3)ccc2C(F)(F)F)cc1` [Cmp 125, 4-(pyridin-3-yl)-N-(3-(4-p-tolylbutoxy)-4-(trifluoromethyl)phenyl)thiazol-2-amine], over 6.00.
As for `CCCCCCCCOc1ccc(Nc2ncc(-c3cccnc3)s2)cc1C(F)(F)F` [Cmp 164, N-(4-(octyloxy)-3-(trifluoromethyl)phenyl)-5-(pyridin-3-yl)thiazol-2-amine], the figure is over 6.00; as for `CCCCCCCCOc1ccc(Nc2nc(-c3cccnc3)cs2)cc1C(C)=O` [Cmp 140, 1-(2-(octyloxy)-5-(4-(pyridin-3-yl)thiazol-2-ylamino)phenyl)ethanone], over 6.00.
The figure for `CCCCCCCc1nc2cc(Nc3nc(-c4cnc(OC)nc4)c(F)s3)ccc2o1` [Cmp 57, N-(5-fluoro-4-(2-methoxypyrimidin-5-yl)thiazol-2-yl)-2-heptylbenzo[d]oxazol-5-amine] is over 6.00; for `CCCCOCCCCc1ccc(Nc2nc(-c3cccnc3)c(F)s2)cc1C(F)(F)F` [Cmp 234, N-(4-(4-butoxybutyl)-3-(trifluoromethyl)phenyl)-5-fluoro-4-(pyridin-3-yl)thiazol-2-amine] it is over 6.00.
`CCCCCCCC(C)Oc1ccc(Nc2nc(-c3cccnc3)c(F)s2)cc1C(F)(F)F` (stereo not drawn) [Cmp 218, 5-fluoro-N-(4-(nonan-2-yloxy)-3-(trifluoromethyl)phenyl)-4-(pyridin-3-yl)thiazol-2-amine]: the pEC50 is over 6.00.
As for `CCCCCCCCOc1cc(Nc2nc(-c3cnc(OC)nc3)c(F)s2)ccc1C(F)(F)F` [Cmp 88, 5-fluoro-4-(2-methoxypyrimidin-5-yl)-N-(3-(octyloxy)-4-(trifluoromethyl)phenyl)thiazol-2-amine], the pEC50 is over 6.00.
The figure for `CCCCCCCCOc1c(F)cc(Nc2nc(-c3cccnc3)c(F)s2)cc1F` [Cmp 119, N-(3,5-difluoro-4-(octyloxy)phenyl)-5-fluoro-4-(pyridin-3-yl)thiazol-2-amine] is over 6.00; for `CCCCCCCCc1ccc(Nc2nc(-c3ccc(O)c(C(N)=O)c3)c(Cl)s2)cc1C(F)(F)F` [Cmp 185, 5-(5-chloro-2-(4-octyl-3-(trifluoromethyl)phenylamino)thiazol-4-yl)-2-hydroxybenzamide] it is over 6.00; for `Cc1ccc(OCCCc2ccc(Nc3nc(-c4cccnc4)c(F)s3)cc2C(F)(F)F)cc1` [Cmp 127, 5-fluoro-4-(pyridin-3-yl)-N-(4-(3-(p-tolyloxy)propyl)-3-(trifluoromethyl)phenyl)thiazol-2-amine] it is over 6.00.
On to `CCCCCOc1cc(Nc2nc(-c3cccnc3)cs2)ccc1C(F)(F)F` [Cmp 69, N-(3-(pentyloxy)-4-(trifluoromethyl)phenyl)-4-(pyridin-3-yl)thiazol-2-amine], for which the pEC50 is over 6.00.
As for `Cc1ccc(OCCCCc2ccc(Nc3nc(-c4cccnc4)c(F)s3)cc2C(F)(F)F)cc1` [Cmp 116, 5-fluoro-4-(pyridin-3-yl)-N-(4-(4-(p-tolyloxy)butyl)-3-(trifluoromethyl)phenyl)thiazol-2-amine], the figure is over 6.00.
